# Laboratory results taken from patent US20230167114A1, “MACROCYCLIC JAK INHIBITOR AND USE THEREOF” (Biopolar Hongye (Guangdong) Pharmaceutical Co., Ltd., priority 2020, published 2023).
# Key:
# Assay type in all cases: biochemical
# JAK2 = JAK2 (Homo sapiens, UniProt O60674); test: JAK kinase activity, homogeneous time-resolved fluorescence (JAK2 reaction system); details: ATP 2 μM, JAK2 protein 0.01 ng/μL
# Experimental: (§1) The activity measurement method of JAK kinase was to use homogeneous time-resolved fluorescence technique. The reaction was performed in 384 shallow well plates with a total reaction volume of 10 μL. The mixture of kinase protein, compound, ATP and substrate was carried out in a reaction buffer of 50 mM Hepes (pH7.0), NaN3 0.02%, BSA 0.01%, 0.1 mM orthocanadate, 5 mM MgCl2, and 1 mM DTT. After reacting for 1 hour, antibody capable of recognizing substrate phosphorylation and dye XL-615 and detection buffer (Cisbio) containing EDTA were added to the system. The reaction signal of kinase was detected by PE company's porous plate detector. The parameter settings were excitation light at 320 nm, emission light at 615 nm and 665 nm. The activity of JAK is indirectly reflected by the signal ratio of 665 nm and 615 nm. In the reaction, the background well without enzyme and the total enzyme activity well without compound were set.
# (§2) The IC50 value of the compound inhibiting protein was obtained by the formula: Y=100/(1+10^((Log IC50−X)*HillSlope)).
# In JAK2 reaction system, the concentration of ATP was 2 μM, and the concentration of JAK2 protein was 0.01 ng/μL.
# TYK2 = TYK2 (Homo sapiens, UniProt P29597); test: JAK kinase activity, homogeneous time-resolved fluorescence (TYK2 reaction system); details: ATP 2 μM, TYK2 protein 0.2 ng/μL; read-out: TYK 2 activity
# Experimental: as §1, §2
# In TYK2 reaction system, the concentration of ATP was 2 μM and the concentration of TYK2 protein was 0.2 ng/μL.
# JAK1 = JAK1 (Homo sapiens, UniProt P23458); test: JAK kinase activity, homogeneous time-resolved fluorescence (JAK1 reaction system); details: ATP 2 μM, JAK1 protein 0.2 ng/μL; read-out: JAK 1 activity
# Experimental: as §1, §2
# In JAK1 reaction system, the concentration of ATP was 2 μM, and the concentration of JAK1 protein was 0.2 ng/μL.
# JAK3 = target: T1, JAK3 (Homo sapiens, UniProt P52333); test: JAK kinase activity, homogeneous time-resolved fluorescence (JAK3 reaction system); details: ATP 2 μM, JAK3 protein 0.04 ng/μL; read-out: JAK 3 activity
# T1 sequence (P52333 1-1124): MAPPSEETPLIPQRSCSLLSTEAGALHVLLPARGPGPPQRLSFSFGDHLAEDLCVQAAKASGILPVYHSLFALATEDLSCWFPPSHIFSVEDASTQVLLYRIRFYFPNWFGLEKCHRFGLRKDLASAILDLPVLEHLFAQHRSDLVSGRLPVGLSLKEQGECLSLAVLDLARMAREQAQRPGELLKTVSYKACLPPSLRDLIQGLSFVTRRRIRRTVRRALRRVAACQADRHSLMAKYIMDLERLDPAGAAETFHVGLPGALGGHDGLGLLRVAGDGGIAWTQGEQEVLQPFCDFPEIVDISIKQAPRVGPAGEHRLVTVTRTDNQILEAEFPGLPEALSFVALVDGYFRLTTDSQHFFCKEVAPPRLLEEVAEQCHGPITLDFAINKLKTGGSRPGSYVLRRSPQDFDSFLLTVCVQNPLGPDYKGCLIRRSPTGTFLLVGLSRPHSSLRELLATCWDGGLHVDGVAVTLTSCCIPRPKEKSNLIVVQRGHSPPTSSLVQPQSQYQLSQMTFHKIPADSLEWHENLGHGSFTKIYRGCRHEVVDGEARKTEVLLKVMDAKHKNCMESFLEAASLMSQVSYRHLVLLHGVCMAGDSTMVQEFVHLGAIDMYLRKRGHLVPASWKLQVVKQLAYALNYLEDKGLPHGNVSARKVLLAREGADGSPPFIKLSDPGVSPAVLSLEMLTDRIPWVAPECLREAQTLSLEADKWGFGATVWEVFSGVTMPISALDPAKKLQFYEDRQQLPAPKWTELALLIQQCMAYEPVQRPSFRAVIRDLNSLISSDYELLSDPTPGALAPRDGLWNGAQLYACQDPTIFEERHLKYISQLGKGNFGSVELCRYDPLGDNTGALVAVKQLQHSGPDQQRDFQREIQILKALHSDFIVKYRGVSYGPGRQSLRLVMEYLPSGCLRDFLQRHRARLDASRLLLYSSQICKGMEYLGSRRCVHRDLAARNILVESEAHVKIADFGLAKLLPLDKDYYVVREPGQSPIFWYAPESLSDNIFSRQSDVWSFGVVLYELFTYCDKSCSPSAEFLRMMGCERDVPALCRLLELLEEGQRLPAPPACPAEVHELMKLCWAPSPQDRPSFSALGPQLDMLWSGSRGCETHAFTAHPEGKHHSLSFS
# Experimental: as §1, §2
# In JAK3 reaction system, the concentration of ATP was 2 μM, and the concentration of JAK3 protein was 0.04 ng/μL.
# Sequence of JAK2 (O60674 whole entry): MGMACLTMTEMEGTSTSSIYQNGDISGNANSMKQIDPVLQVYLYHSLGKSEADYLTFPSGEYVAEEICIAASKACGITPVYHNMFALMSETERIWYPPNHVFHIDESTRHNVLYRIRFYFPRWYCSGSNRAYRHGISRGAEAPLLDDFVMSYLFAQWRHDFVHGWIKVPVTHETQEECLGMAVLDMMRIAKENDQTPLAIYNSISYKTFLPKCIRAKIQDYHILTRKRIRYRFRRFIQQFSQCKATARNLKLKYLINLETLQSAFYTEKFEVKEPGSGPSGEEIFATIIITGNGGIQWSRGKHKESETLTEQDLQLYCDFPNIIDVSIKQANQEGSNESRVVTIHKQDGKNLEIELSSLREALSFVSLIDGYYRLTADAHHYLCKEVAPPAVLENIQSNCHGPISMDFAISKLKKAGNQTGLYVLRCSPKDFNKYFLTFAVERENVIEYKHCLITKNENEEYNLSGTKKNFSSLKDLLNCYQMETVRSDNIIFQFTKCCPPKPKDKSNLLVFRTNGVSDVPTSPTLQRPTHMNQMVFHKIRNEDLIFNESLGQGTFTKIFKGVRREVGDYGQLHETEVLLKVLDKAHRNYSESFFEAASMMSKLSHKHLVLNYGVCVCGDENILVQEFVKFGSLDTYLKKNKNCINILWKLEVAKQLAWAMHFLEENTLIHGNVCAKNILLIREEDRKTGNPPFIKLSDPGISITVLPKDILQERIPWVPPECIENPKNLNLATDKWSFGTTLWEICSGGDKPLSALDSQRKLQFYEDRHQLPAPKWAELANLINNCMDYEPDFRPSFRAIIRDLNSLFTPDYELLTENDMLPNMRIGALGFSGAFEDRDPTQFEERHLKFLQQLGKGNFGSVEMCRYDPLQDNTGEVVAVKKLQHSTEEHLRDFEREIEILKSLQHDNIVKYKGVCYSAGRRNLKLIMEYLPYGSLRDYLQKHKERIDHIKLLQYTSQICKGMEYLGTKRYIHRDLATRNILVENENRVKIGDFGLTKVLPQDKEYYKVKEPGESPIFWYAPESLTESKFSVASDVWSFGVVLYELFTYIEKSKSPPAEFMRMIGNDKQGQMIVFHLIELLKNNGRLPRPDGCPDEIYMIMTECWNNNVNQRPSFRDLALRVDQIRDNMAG
# Sequence of TYK2 (P29597 whole entry): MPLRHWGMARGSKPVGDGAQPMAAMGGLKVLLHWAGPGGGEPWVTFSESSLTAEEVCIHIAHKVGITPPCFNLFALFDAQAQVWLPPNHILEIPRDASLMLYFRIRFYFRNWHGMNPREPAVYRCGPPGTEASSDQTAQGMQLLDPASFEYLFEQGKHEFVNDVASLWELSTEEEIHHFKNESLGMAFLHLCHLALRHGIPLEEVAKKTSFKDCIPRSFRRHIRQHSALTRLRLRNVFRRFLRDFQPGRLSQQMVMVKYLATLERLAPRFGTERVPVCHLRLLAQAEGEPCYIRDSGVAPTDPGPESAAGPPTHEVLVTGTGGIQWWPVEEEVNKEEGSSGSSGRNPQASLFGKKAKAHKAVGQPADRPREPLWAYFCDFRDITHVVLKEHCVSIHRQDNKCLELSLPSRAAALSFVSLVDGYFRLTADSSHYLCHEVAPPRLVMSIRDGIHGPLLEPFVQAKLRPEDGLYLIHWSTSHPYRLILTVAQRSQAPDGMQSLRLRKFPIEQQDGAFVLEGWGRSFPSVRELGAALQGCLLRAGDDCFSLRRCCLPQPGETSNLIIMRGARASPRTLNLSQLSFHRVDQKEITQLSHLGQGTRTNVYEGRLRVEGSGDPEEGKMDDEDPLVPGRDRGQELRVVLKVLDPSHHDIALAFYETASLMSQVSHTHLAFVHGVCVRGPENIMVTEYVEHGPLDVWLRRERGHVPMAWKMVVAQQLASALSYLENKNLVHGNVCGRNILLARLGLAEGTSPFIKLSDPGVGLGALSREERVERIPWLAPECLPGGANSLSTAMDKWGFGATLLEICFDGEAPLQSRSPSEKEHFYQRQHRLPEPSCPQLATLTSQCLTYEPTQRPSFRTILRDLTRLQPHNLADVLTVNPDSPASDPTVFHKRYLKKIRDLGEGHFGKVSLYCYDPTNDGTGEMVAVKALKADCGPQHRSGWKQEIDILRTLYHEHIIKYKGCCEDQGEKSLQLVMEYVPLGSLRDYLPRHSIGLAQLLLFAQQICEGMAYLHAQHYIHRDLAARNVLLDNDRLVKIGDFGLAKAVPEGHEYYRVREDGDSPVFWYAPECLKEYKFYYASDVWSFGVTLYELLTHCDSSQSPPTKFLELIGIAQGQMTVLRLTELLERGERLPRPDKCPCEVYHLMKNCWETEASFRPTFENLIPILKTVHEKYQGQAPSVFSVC
# Sequence of JAK1 (P23458 whole entry): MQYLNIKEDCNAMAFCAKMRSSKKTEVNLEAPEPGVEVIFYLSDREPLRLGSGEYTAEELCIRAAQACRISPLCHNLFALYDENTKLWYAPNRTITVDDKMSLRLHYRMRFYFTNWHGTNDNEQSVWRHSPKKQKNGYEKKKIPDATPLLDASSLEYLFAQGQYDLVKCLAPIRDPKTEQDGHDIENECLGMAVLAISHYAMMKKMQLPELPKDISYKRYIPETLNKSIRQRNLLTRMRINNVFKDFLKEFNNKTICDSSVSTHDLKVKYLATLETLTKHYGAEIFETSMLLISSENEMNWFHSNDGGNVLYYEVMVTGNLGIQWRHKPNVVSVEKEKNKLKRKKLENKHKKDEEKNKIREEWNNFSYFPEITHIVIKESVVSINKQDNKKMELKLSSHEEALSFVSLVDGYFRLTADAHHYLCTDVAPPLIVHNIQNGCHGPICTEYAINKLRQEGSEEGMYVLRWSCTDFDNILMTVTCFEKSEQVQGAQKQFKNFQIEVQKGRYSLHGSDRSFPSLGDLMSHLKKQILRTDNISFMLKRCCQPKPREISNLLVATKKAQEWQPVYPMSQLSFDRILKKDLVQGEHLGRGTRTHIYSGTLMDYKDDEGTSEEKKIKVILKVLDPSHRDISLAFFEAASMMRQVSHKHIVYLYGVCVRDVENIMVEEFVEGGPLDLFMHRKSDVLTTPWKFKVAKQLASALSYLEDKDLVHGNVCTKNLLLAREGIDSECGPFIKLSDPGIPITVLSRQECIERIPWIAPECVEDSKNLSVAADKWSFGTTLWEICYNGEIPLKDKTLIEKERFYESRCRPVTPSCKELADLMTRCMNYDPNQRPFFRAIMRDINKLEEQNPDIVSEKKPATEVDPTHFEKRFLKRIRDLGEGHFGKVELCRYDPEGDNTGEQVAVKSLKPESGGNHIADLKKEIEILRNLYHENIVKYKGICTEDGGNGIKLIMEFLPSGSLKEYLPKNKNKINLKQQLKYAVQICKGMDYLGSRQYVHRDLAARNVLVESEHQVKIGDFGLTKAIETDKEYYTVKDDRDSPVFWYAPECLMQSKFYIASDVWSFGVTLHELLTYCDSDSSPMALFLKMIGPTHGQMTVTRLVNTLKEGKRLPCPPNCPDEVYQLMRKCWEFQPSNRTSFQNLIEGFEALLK
SMILES,IC50 (JAK2) [nM],IC50 (TYK2) [nM],IC50 (JAK1) [nM],IC50 (JAK3) [nM]
"Cc1cc2ccc1C(=O)NCCCCCNc1nc(ncc1C)Nc1cc-2cnc1F [Compound 11, 2^6-fluoro-l^3,4^5-dimethyl-3,5,11-triaza-4(2,4)-pyrimidina-2(3,5)-pyridina-1(1,4)-benzenacyclododecaphan-12-one]",101 to 1000,1000 to 10000,101 to 1000,1000 to 10000
"Cc1cnc2nc1NCCCCCNC(=O)c1c(F)cc(cc1F)-c1cnc(F)c(c1)N2 [Compound 39, 1^3,1^5,2^6-trifluoro-4^5-methyl-3,5,11-triaza-4(2,4)-pyrimidina-2(3,5)-pyridina-1(1,4)-benzenacyclododecaphan-12-one]",101 to 1000,> 10000,1000 to 10000,1000 to 10000
"Cc1cnc2nc1Nc1cccc(c1)CCNC(=O)c1ccc(cc1S(C)(=O)=O)-c1cnc(F)c(c1)N2 [Compound 24, 2^6-fluoro-4^5-methyl-1^3-(methylsulfonyl)-3,5,9-triaza-4(2,4)-pyrimidina-2(3,5)-pyridina-1(1,4),6(1,3)-dibenzenacyclodecaphan-10-one]",< 10,101 to 1000,< 10,11 to 100
"Cc1cnc2nc1Nc1cc(ccc1O)CCNC(=O)c1ccc(cc1)-c1cnc(F)c(c1)N2 [Compound 48, 2^6-fluoro-6^6-hydroxy-4^5-methyl-3,5,9-triaza-4(2,4)-pyrimidina-2(3,5)-pyridina-1-2,(1,4),6(1,3)-dibenzenacyclodecaphan-10-one]",11 to 100,101 to 1000,11 to 100,101 to 1000
"COc1cnc2nc1NCCCCCNC(=O)c1ccc(cc1)-c1cnc(F)c(c1)N2 [Compound 5, 2^6-fluoro-4^5-methoxy-3,5,11-triaza-4(2,4)-pyrimidina-2(3,5)-pyridina-1(1,4)-benzenacyclododecaphan-12-one]",1000 to 10000,> 10000,1000 to 10000,1000 to 10000
"COC(=O)c1cc2ccc1C(=O)NCCCCCNc1nc(ncc1C)Nc1cc-2cnc1F [Compound 19, methyl 2^6-fluoro-4^5-methyl-12-oxo-3,5,11-triaza-4(2,4)-pyrimidina-2(3,5)-pyridina-1(1,4)-benzenacyclododecaphane-1^3-carboxylate]",101 to 1000,> 10000,101 to 1000,1000 to 10000
"Cc1cnc2nc1Nc1cc(F)cc(c1)CCNC(=O)c1ccc(cc1S(C)(=O)=O)-c1cnc(F)c(c1)N2 [Compound 46, 2^6,6^5-difluoro-4^5-methyl-1^3(methylsulfonyl)-3,5,9-triaza-4(2,4)-pyrimidina-2(3,5)-pyridina-1(1,4),6(1,3)-dibenzenacyclodecaphan-10-one]",< 10,101 to 1000,< 10,11 to 100
"Cc1cnc2nc1Nc1cccc(c1)CCNC(=O)c1c(F)cc(cc1F)-c1cnc(F)c(c1)N2 [Compound 33, 1^3,1^5,2^6-trifluoro-4^5-methyl-3,5,9-triaza-4(2,4)-pyrimidina-2(3,5)-pyridina-1(1,4),6(1,3)-dibenzenacyclodecaphan-10-one]",101 to 1000,> 10000,101 to 1000,1000 to 10000
"Cc1cnc2nc1Nc1ccc(F)c(c1)CCNC(=O)c1ccc(cc1S(C)(=O)=O)-c1cnc(F)c(c1)N2 [Compound 27, 2^6,6^4-difluoro-4^5-methyl-1^3(methylsulfonyl)-3,5,9-triaza-4(2,4)-pyrimidina-2(3,5)-pyridina-1(1,4),6(1,3)-dibenzenacyclodecaphan-10-one]",101 to 1000,> 10000,11 to 100,101 to 1000
"O=C1NCCOCc2cccc(c2)Nc2nc(ncc2F)Nc2cc(cnc2F)-c2ccc1cc2 [Compound 16, 2^6,4^5-difluoro-oxa-3,5,11-triaza-4(2,4)-pyrimidina-2(3,5)-pyridina-1(1,4),6(1,3)-dibenzenacyclododecaphan-12-one]",11 to 100,1000 to 10000,11 to 100,11 to 100
"Cc1cnc2nc1NCCCCCNC(=O)c1ccc(cc1[N+](=O)[O-])-c1cnc(F)c(c1)N2 [Compound 10, 2^6-fluoro-4^5-methyl-1^3-nitro-3,5,11-triaza-4(2,4)-pyrimidina-2(3,5)-pyridina-1(1,4)-benzenacydododecaphan-12-one]",101 to 1000,1000 to 10000,11 to 100,1000 to 10000
"Cc1cnc2nc1Nc1cccc(c1)CCCNC(=O)c1ccc(cc1[N+](=O)[O-])-c1cnc(F)c(c1)N2 [Compound 38, 2^6-fluoro-4^5-methyl-1^3-nitro-3,5,10-triaza-4(2,4)-pyrimidina-2(3,5)-pyridina-1(1,4),6(1,3)-dibenzenacycloundecaphan-11-one]",< 10,101 to 1000,< 10,11 to 100
"Cc1cnc2nc1NCCCCCCCNC(=O)c1ccc(cc1F)-c1cnc(F)c(c1)N2 [Compound 12, I^3,2^6-difluoro-4^5-methyl-3,5,13-triaza-4(2,4)-pyrimidina-2(3,5)-pyridina-1(1,4)-benzenacydododecaphan-12-one]",101 to 1000,1000 to 10000,101 to 1000,1000 to 10000
"CCNc1cc2ccc1C(=O)NCCCCCNc1nc(ncc1C)Nc1cc-2cnc1F [Compound 44, 1^3-(ethylamino)-2^6-difluoro-4^5-methyl-3,5,11-triaza-4(2,4)-pyrimidina-2(3,5)-pyridina-1(1,4)-benzenacyclododecaphan-12-one]",1000 to 10000,> 10000,1000 to 10000,> 10000
"Cc1cnc2nc1NCCCCCNC(=O)c1ccc(cc1N)-c1cnc(F)c(c1)N2 [Compound 9, 1^3-amino-2^6-difluoro-4^5-methyl-3,5,11-triaza-4(2,4)-pyrimidina-2(3,5)-pyridina-1(1,4)-benzenacyclododecaphan-12-one]",101 to 1000,1000 to 10000,101 to 1000,1000 to 10000
"CNC(=O)c1cc2ccc1C(=O)NCCCCCNc1nc(ncc1C)Nc1cc-2cnc1F [Compound 40, 2^6-fluoro-N,4^5-dimethyl-12-oxo-3,5,11-triaza-4(2,4)-pyrimidina-2(3,5)-pyridina-1(1,4)-benzenacyclododecaphane-1^3-formamide]",1000 to 10000,> 10000,101 to 1000,1000 to 10000
"Cc1cnc2nc1Nc1cccc(c1)CCCCNC(=O)c1ccc(cc1)-c1cnc(F)c(c1)N2 [Compound 18, 2^6-fluoro-4^5-methyl-3,5,11-triaza-4(2,4)-pyrimidina-2(3,5)-pyridina-1(1,4),6(1,3)-dibenzenacyclododecaphan-12-one]",< 10,11 to 100,< 10,< 10
"COC(=O)c1cc2ccc1C(=O)NCCCc1cccc(c1)Nc1nc(ncc1C)Nc1cc-2cnc1F [Compound 36, Methyl 2^6-fluoro-4^5-methyl-11-oxo-3,5,10-triaza-4(2,4)-pyrimidina-2(3,5)-pyridina-1(1,4),6(1,3)-dibenzenacycloundecaphan-1^3-carboxylate]",< 10,101 to 1000,< 10,11 to 100
